Tested on: lung fibroblasts
Assay: IGF-1 expression in lung fibroblasts
Format: cell-based
Conditions: not shown
Source text: IGF-1 was implicated as a fibroblast mitogen in BALF from patients with sarcoidosis (Allen et al., Am J Respir Cell Mol Biol 19:250-258 (1998)) and systemic sclerosis (Harrison et al., Clin Sci (Lond) 86:141-148 (1994)). […] In the experiments described herein, IGF-1 mediated cell survival and migration, but not proliferation of normal lung fibroblasts through IGF-1R. The prior studies used either the fetal fibroblast cell line IMR-90 or human fetal embryonic fibroblasts (HFL-1) to examine the proliferative response (Allen et al., Am J Respir Cell Mol Biol 19:250-258 (1998); Harrison et al., Clin Sci (Lond) 86:141-148 (1994)). In contrast, the studies described herein used early passage primary adult lung fibroblasts, which may account for differences in results. In addition, the mitogenic response to IGF in the earlier studies was determined by immunodepletion of IGF from BALF (Allen et al., Am J Respir Cell Mol Biol 19:250-258 (1998); Harrison et al., Clin Sci (Lond) 86:141-148 (1994)). Without wishing to be bound by theory, it is thought that activation of fibroblasts by other growth factors or cytokines such as TGFβ1 in BALF may be necessary for the pro-proliferative effect of IGF (Scarpa et al., Peptides 26:2201-2210 (2005); Danielpour and Song, Cytokine & growth factor reviews 17:59-74 (2006)).

## TGFβ1: growth factor, mediator of fibrosis
  IGF-1 expression in lung fibroblasts: significantly upregulated IGF-1 expression

— patent publication US8178091B2, “Compositions and methods for the treatment of respiratory disorders” (University of Washington, priority 2007, dated 2012)
